Values of other authors, collected in patent US12514855B2 (IRR, Inc., priority 2020, dated 2026).

Assays:
[1] = with warfarin, theophylline, digoxin, terfenadine, oral contraceptives, or prednisone
[2] = system: histamine induced wheal and flare
[3] = system: human rhinovirus (HRV)
[4] = in vivo
[5] = target: H1 receptor (Homo sapiens, UniProt P35367); settings: in an acidic pH
[6] = in vivo; remark: listed apart in the source
[7] = airway epithelial cells from nose and lung

Chain of H1 receptor (P35367 whole entry): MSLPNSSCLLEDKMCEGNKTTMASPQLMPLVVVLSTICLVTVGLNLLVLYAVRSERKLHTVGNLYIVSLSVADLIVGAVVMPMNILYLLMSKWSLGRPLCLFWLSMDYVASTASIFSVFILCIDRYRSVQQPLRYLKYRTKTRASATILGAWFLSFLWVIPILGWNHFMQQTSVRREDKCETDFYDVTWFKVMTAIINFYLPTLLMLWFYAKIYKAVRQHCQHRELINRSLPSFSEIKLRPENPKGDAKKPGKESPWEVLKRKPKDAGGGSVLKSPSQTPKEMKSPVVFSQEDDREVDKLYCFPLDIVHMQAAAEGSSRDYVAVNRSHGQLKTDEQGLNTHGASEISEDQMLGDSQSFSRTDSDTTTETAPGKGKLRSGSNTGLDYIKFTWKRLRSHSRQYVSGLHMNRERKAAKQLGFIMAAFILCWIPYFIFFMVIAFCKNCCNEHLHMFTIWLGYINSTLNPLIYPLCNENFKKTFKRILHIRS

drug interactions [1] | time to steady state level [4] | receptor affinity over first generation mepyramine [5] | dose that can be safely administered [6] | SMILES | potency through histamine induced wheal and flare data ([2]; compared with modern generation antihistamines) | effectiveness versus fexofenadine ([2]; levocetirizine 5 mg per day vs fexofenadine 180 mg per day) | HRV viral replication [3, 7] | HRV-induced ICAM-1 [3, 7] | HRV-induced cytokine expression [3, 7] | levels of HRV-induced increases in ICAM-1 ([3]; levocetirizine added before, after, or at the time of the HRV infection)
no drug interactions | – | – | – | CC(C)(O)c1ccccc1CC[C@@H](SCC1(CC(=O)O)CC1)c1cccc(/C=C/c2ccc3ccc(Cl)cc3n2)c1 [montelukast] | – | – | – | – | – | –
– | 40 h | 5 × | up to 30 mg/day | O=C(O)COCCN1CCN([C@H](c2ccccc2)c2ccc(Cl)cc2)CC1 [levocetirizine] | most potent of the five modern generation antihistamines | more effective than fexofenadine | inhibit | inhibit | inhibit | reduced
